Measurements published in ChEMBL document CHEMBL3632512, “Inhibition of 3-deoxy-D-arabino-heptulosonate 7-phosphate synthase from Mycobacterium tuberculosis: in silico screening and in vitro validation” (Eur J Med Chem, 2015).
pIC50: −log10 of the molar value. Activity calls are given as the source filed them. No cut-off for these calls is given here.

Legend:
[1] = tested on: Mycobacterium tuberculosis; assay: Inhibition of Mycobacterium tuberculosis MTCC 300 DAH7PS expressed in Escherichia coli BL21 (DE3) using 25 to 125 uM PEP/100 uM E4P as substrate at 10 uM by spectrophotometric analysis relative to control
[2] = (§1) Inhibition of Mycobacterium tuberculosis MTCC 300 DAH7PS expressed in Escherichia coli BL21 (DE3) using 25 to 125 uM PEP/100 uM E4P as substrate by spectrophotometric analysis
[3] = tested on: Mycobacterium tuberculosis; assay: as §1
[4] = tested on: Mycobacterium tuberculosis; assay: Inhibition of Mycobacterium tuberculosis MTCC 300 DAH7PS expressed in Escherichia coli BL21 (DE3) using 25 to 125 uM PEP/100 uM E4P as substrate up to 50 nM by spectrophotometric analysis

| SMILES | inhibition [1] [%] | pIC50 [2] | inhibition [3] | inhibition [4] |
| --- | --- | --- | --- | --- |
| C[C@@H]1O[C@@H](OC[C@H]2O[C@@H](Oc3c(-c4ccc(O)c(O)c4)oc4cc(O)cc(O)c4c3=O)[C@H](O)[C@@H](O)[C@@H]2O)[C@H](O)[C@H](O)[C@H]1O [RUTIN] | 17 | 4.38 | Dose-dependent effect | inactive |
| Cc1c(C)c2c(c(C)c1O)CC[C@@](C)(CCC[C@H](C)CCC[C@H](C)CCCC(C)C)O2 [ALPHA-TOCOPHEROL] | 21 | 4.68 | Dose-dependent effect | inactive |
| O=C(/C=C/c1ccc(O)c(O)c1)O[C@@H]1C[C@](O)(C(=O)O)C[C@@H](O)[C@H]1O [CHLOROGENIC ACID] | 9 | 3.54 |  | inactive |
| C[C@]1(O)CC[C@@H]2C(C(=O)O)=CO[C@@H](O[C@@H]3O[C@H](CO)[C@@H](O)[C@H](O)[C@H]3OC(=O)c3ccc(O)cc3)[C@@H]21 [NEGUNDOSIDE] | 8 | 3.80 |  | inactive |
| N[C@@H](Cc1ccc(O)cc1)C(=O)O [TYROSINE] | 41 | 4.89 |  |  |
| O=Cc1cccnc1 [NICOTINALDEHYDE] | 16 | 4.27 | Dose-dependent effect | inactive |
